Literature values in publication PMC12181400, “Leveraging viral genome sequences and machine learning models for identification of potentially selective antiviral agents” (Communications Chemistry, 2025).
Counter-ions that a name gives are not always drawn. Like-named read-outs stand apart in the source and are kept apart here.

What was measured:
Conditions in all cases: cited from earlier work
[1] = tested on: cell viability (tox21-ar-mda-kb2-luc-antagonist-p2)
[2] = tested on: cell viability (tox21-car-antagonist-p1)
[3] = tested on: cell viability (tox21-ar-mda-kb2-luc-agonist-p3)
[4] = tested on: cell viability (tox21-car-agonist-p1)
[5] = tested on: cell viability (tox21-are-bla-p1)
[6] = tested on: cell viability (tox21-ap1-agonist-p1)
[7] = curve rank −9 to 9, 0 = inactive, ref NCATS Tox21 public data browser

SMILES	tox21-ar-mda-kb2-luc-antagonist-p2-viability (curve rank) [1]	tox21-car-antagonist-p1-viability (curve rank) [2]	tox21-ar-mda-kb2-luc-agonist-p3-viability (curve rank) [3]	tox21-car-agonist-p1-viability (curve rank) [4]	tox21-are-bla-p1-viability (curve rank) [5]	tox21-ap1-agonist-p1-viability (curve rank) [6]	tox21-ar-mda-kb2-luc-antagonist-p2-viability (curve rank) [1, 7]	tox21-car-antagonist-p1-viability (curve rank) [2, 7]	tox21-ar-mda-kb2-luc-agonist-p3-viability (curve rank) [3, 7]	tox21-car-agonist-p1-viability (curve rank) [4, 7]	tox21-are-bla-p1-viability (curve rank) [5, 7]	tox21-ap1-agonist-p1-viability (curve rank) [6, 7]
CC(=O)CCCCn1c(=O)c2c(ncn2C)n(C)c1=O [Pentoxifylline]	0	0	0	0	0	0						
CCCCC1(COC(=O)CCC(=O)O)C(=O)N(c2ccccc2)N(c2ccccc2)C1=O [Suxibuzone]	0	0	0	0	0	0						
Cc1ncc([N+](=O)[O-])n1CC(O)CCl (stereo not drawn) [Ornidazole]	0	0	0	0	0	0						
CC(=O)N[C@@H](CC(C)C)C(=O)O [Acetyl-L-leucine]	0	0	0	0	0	0						
CC1Cc2ccccc2N1NC(=O)c1ccc(Cl)c(S(N)(=O)=O)c1 (stereo not drawn) [Indapamide]	0	0	0	0	0	0						
NC(=O)C[S+]([O-])C(c1ccccc1)c1ccccc1 (stereo not drawn) [Modafinil]							0	0	0	0	0	0
C=CCNC(N)=S [Allylthiourea]							0	0	0	0	0	0
Nc1cc(N2CCCCC2)nc(N)[n+]1[O-] [Minoxidil]	0	0	0	0	0	0						
CC(C)NNC(=O)c1ccncc1 [Iproniazid sulfate]	0	0	0	0	0	0						
CN1Cc2c(N)cccc2C(c2ccccc2)C1 (stereo not drawn) [Nomifensine maleate]	0	0	0	0	0	0						
Cc1ncc([N+](=O)[O-])n1CC(C)O (stereo not drawn) [Secnidazole]							0	0	0	0	0	0
CC(C)N(CCC(C(N)=O)(c1ccccc1)c1ccccn1)C(C)C (stereo not drawn) [Disopyramide]	0	0	0	0	0	0						
O=C(O)c1cc(=O)c2ccccc2o1 [Chromocarb]							0	0	0	0	0	0
C/C(=C(\CCOP(=O)(O)O)SC(=O)c1ccccc1)N(C=O)Cc1cnc(C)nc1N [Benfotiamine]	0	0	0	0	0	0						
CCC(=O)O[C@]1(C(=O)SCF)[C@H](C)C[C@H]2[C@@H]3C[C@H](F)C4=CC(=O)C=C[C@]4(C)[C@@]3(F)[C@@H](O)C[C@@]21C [Fluticasone propionate]	0	0	0	0.67	0	0						
COCCc1ccc(OCC(O)CNC(C)C)cc1 (stereo not drawn) [Metoprolol tartrate]							0	0	0	0	0	0
CC1=C2[C@H]3OC(=O)[C@@H](C)[C@@H]3CC[C@@]2(C)C=CC1=O [alpha-Santonin]							0	0	0	0	0	0
CCOc1ccc(NC(C)=O)cc1 [Phenacetin]	0	0	0	0	0	0						
NS(=O)(=O)c1cc2c(cc1Cl)N=C(CSCc1ccccc1)NS2(=O)=O [Benzthiazide]	0	0	0	0	0	0						
Nc1ccc(S(=O)(=O)Nc2ccnn2-c2ccccc2)cc1 [Sulfaphenazole]	0	0	0	0	0	0						
CCOP(=S)(OCC)Oc1cc(C)nc(C(C)C)n1 [Diazinon]							0	0	0	0	0	0
CC(=O)NCCCCCC(=O)O [Acexamic acid]							0	0	0	0	0	0
CC(C)(C)C(=O)OCOC(=O)[C@@H]1N2C(=O)[C@@H](NC(=O)[C@H](N)c3ccccc3)[C@H]2SC1(C)C [Pivampicillin]	0	0	0	0	0	0						
CCN(CC)CCOC(=O)C(c1ccccc1)c1ccccc1 [Adiphenine hydrochloride]	0	0	0	0	0	0						
Nc1ccccc1C(=O)O [Anthranilic acid]							0	0	0	0	0	0
COc1ccc(OC)c(C(O)CNC(=O)CN)c1 (stereo not drawn) [Midodrine hydrochloride]	0	0	0	0	0	0						
O=C(c1ccccc1)c1ccc2n1CCC2C(=O)O (stereo not drawn) [Ketorolac]	0	0	0	0	0	0						
NP(N)(=O)NC(=O)c1ccc(F)cc1 [Flurofamide]	0	0	0	0	0	0						
NC(=O)OCC(COC(N)=O)c1ccccc1 [Felbamate]							0	0	0	0	0	0
